# Literature values, collected in patent US20060063794A1, “Method of attenuating graft rejection” (Fujisawa Pharmaceutical Co., Ltd., priority 2004, published 2006).
# Key:
# [1] = MMF 2 g/day in addition to Tacrolimus and corticosteroid; cited from earlier work
# [2] = system: rat cardiac allografts; conditions: rats, 20 mg/kg for ten days; cited from earlier work
Structure (SMILES),AR rate [1],Prolongation of graft survival [2]
COc1c(C)c2c(c(O)c1C/C=C(\C)CCC(=O)OCCN1CCOCC1)C(=O)OC2 [MMF],7.1%,
"N#Cc1ccc(NC(=O)C(C#N)C(=O)C2CC2)cc1 (centres unmarked) [MNA 279, reference compound]",,about two
